The text below walks through data of a melting point compilation (Tetko et al.).

By melting point is commonly meant the temperature, or range, at which the solid turns liquid. Regarding `N#CC(C(=O)c1ccccc1)c1ccccc1` (stereo not given), the melting point is 97 to 99 °C.

On to `CS(=O)(=O)Nc1ccc(O)cc1`, for which the melting point lay in the range of 158 to 160 °C.

`Nc1nc(CN2CCOCC2)cs1`: the melting point lay within 145 to 150 °C.

In the case of `Cc1ccc(-n2c(N)nc3cc(Br)ccc32)cc1`, the melting point fell in the range of 194 to 196 °C.

`O=Cc1ccc(OCc2ccncc2)cc1` registered a melting point of 112 to 114 °C.

As for `O=C(O)c1c(Cl)cccc1Oc1ccc(Cl)cc1`, the melting point was in the range of 109 to 111 °C.

In turn, `COC(=O)c1ccc(Cl)c(N)c1` gave a melting point of 81 to 83 °C.

`COc1cc(C=O)ccc1OC(=O)c1cccs1` yielded a melting point of 64 to 69 °C.

As to `c1ccc2c(c1)NCCS2`, the melting point fell in the range of 34 to 38 °C.

Molecule `Nc1nc(=O)cc[nH]1` yielded a melting point of 268 to 272 °C.

Consider `O=C1COc2cc([N+](=O)[O-])ccc2N1`, for which the melting point was 225 to 227 °C.

For the molecule `Cc1ccc2[nH]cc(CCC(=O)O)c2c1`, the melting point lay in the range of 126 to 128 °C.

As for `CCC(C)NC(=O)c1ccc(N)cc1` (stereo not given), the melting point was 101 to 104 °C.

`CCOC(=O)c1cnn2c(C(=O)OCC)c(CCCO)cnc12` registered a melting point of 70 to 72 °C.

In the case of `Clc1cc(-c2ccccc2)c2ccccc2n1`, the melting point is 85 to 89 °C.

`NC(=O)Cn1cc(N)cn1` showed a melting point of 159 to 161 °C.

For `N#CC1(N2CCN(C(=O)CCl)CC2)CCCCC1`, the melting point was 97 to 99 °C.

In the case of `COc1cccc(-c2nn(-c3ccccc3)cc2C(=O)O)c1`, the melting point lay in the range of 156 to 158 °C.

In turn, `COc1cc(N)c(C(=O)O)c(OC)c1` had a melting point of 106 to 108 °C.

For the molecule `O=C(O)CCS(=O)(=O)c1ccc(Cl)cc1`, the melting point fell in the range of 181 to 183 °C.

Molecule `Nc1nc(C2CC2)c(Cc2ccccc2F)s1` displayed a melting point of 114 to 116 °C.

Molecule `CCOC(=O)c1sc2nc(CCl)[nH]c(=O)c2c1C` returned a melting point of 190 to 192 °C.

For the molecule `NS(=O)(=O)CCS(=O)(=O)c1ccc(F)cc1`, the melting point was in the range of 173 to 175 °C.

Take `O=C(O)c1cccn1Cc1ccccc1`: the melting point was 124 to 126 °C.

For the molecule `CC(C)c1nccc(O)n1`, the melting point was in the range of 239 to 241 °C.

As for `CC(C)c1noc(-c2ccccc2C(=O)O)n1`, the melting point lay within 141 to 143 °C.

Consider `CC(C)CNC(=O)c1ccc(N)cc1Cl`, for which the melting point is 100 to 102 °C.

Molecule `O=C(O)c1cccn1Cc1ccncc1` displayed a melting point of 199 to 201 °C.

`Cc1ccc(-c2ccc(C(=O)O)s2)o1` showed a melting point of 197 to 199 °C.

In the case of `Cc1ccc(CCC(=O)NCC(=O)O)cc1`, the melting point was 118 to 120 °C.

`O=C1C=CC=NC1=C(O)Nc1cnccn1`: the melting point lay in the range of 156 to 158 °C.

Regarding `COc1ccc(C(N)CN2CCN(C)CC2)cc1` (stereo not given), the melting point was 82 to 84 °C.

In the case of `CC(C)(C)OC(=O)N1CCCC(n2cc(C(=O)O)cn2)C1` (stereo not given), the melting point lay within 166 to 168 °C.

`Nc1ccccc1S(=O)(=O)C(F)(F)F` yielded a melting point of 47 to 49 °C.

As for `CN1CCN(C(=O)c2ccc(C#N)cn2)CC1`, the melting point was 83 to 85 °C.

Consider `CCS(=O)(=O)NCC(=O)O`, for which the melting point is 85 to 87 °C.

As for `Cc1cc(NC(=O)Nc2cc(C)nn2C)n(C)n1`, the melting point was 209 to 211 °C.

In the case of `Nc1cc(Br)cc(Cl)c1O`, the melting point lay within 79 to 81 °C.

`CC1=NN(c2ccccc2)C(=O)C1=NO` had a melting point of 131 to 133 °C.

For `O=C(O)c1ccncc1Br`, the melting point was in the range of 237 to 239 °C.

For `O=C(O)c1sccc1S(=O)(=O)N1CCCCC1CCO` (stereo not given), the melting point was in the range of 121 to 123 °C.

The molecule `COc1cc(C#N)c2ccccc2n1` yielded a melting point of 133 to 135 °C.

The molecule `CC(C)(C)NS(=O)(=O)c1cc(C(=O)O)ccc1Br` displayed a melting point of 217 to 219 °C.

The molecule `CC=Cc1ccc(OCC(=O)OC)c(OC)c1` returned a melting point of 68 to 70 °C.

For `Nc1ccc(Br)nc1Cl`, the melting point lay within 113 to 115 °C.

In turn, `CCOC(=O)c1sc(-c2cccc([N+](=O)[O-])c2)cc1N` gave a melting point of 166 to 168 °C.

Molecule `O=C(O)CCN1CCSC1=O` had a melting point of 91 to 93 °C.

`CS(=O)(=O)c1ccc(S(N)(=O)=O)cc1` registered a melting point of 246 to 248 °C.

The molecule `O=C(Nc1nnc(-c2ccccn2)s1)OCC(F)(F)F` had a melting point of 246 to 248 °C.

For `Nc1cc2c(cc1[N+](=O)[O-])OCCCO2`, the melting point is 73 to 77 °C.

For the molecule `O=C(O)CSc1nccn1-c1cccc(F)c1`, the melting point was 140 to 142 °C.

With `O=C(O)c1nn(-c2cccc(Cl)c2)cc1O`, the melting point lay within 235 to 237 °C.

Molecule `Cc1ccccc1C(=O)C=O` came in with a melting point of 63 to 65 °C.

`Cc1ccc(Oc2ccc(N)cn2)cc1` registered a melting point of 90 to 92 °C.

`O/N=C(/Cc1nc2ccccc2[nH]1)c1cccs1` displayed a melting point of 207 to 209 °C.

In turn, `COc1ccc(C(=O)Nc2ncc(C)s2)cc1N` returned a melting point of 225 to 227 °C.

Regarding `Cc1ccc(C)c(OCCCCC(=O)O)c1`, the melting point was in the range of 56 to 58 °C.

`N#Cc1cnn(-c2cccc(C(=O)O)c2)c1N` showed a melting point of 286 to 288 °C.

`Cc1cc(C)nc(-n2nc(C)cc2N)n1` gave a melting point of 173 to 175 °C.

With `Oc1cc(Cl)cnc1Br`, the melting point lay within 144 to 146 °C.

For `Cn1ccc(C(=O)NCCC(=O)O)cc1=O`, the melting point lay in the range of 214 to 216 °C.

The molecule `O=C(O)c1cc2c(=O)n3ccccc3nc2n1Cc1ccccc1` registered a melting point of 257 to 259 °C.

As for `CC(N)c1cccc(O)c1` (stereo not given), the melting point was in the range of 166 to 168 °C.

Molecule `CCN(CC)S(=O)(=O)c1cc(N)ccc1Cl` registered a melting point of 95 to 99 °C.

`Cc1ccc(Cl)c(OCC(=O)O)c1` gave a melting point of 134 to 136 °C.

As to `O=C(O)C1CCCN1C(=O)c1ccc2[nH]nnc2c1` (stereo not given), the melting point is 223 to 225 °C.

For the molecule `Nc1ccc2c(c1)OCC(=O)N2`, the melting point is 217 to 219 °C.

As to `Cc1ccc(N)cc1N1CCCS1(=O)=O`, the melting point lay in the range of 128 to 130 °C.

For the molecule `O=C(O)c1ccc(-c2ccccc2OC(F)(F)F)cc1F`, the melting point was 150 to 152 °C.

As for `FC(F)(F)Cn1c(S)nnc1-c1ccncc1`, the melting point was 243 to 245 °C.

For the molecule `Nc1nnc(-c2cccc3ccccc23)[nH]1`, the melting point is 219 to 221 °C.

As to `C=CC(=O)Nc1cc(F)cc(F)c1`, the melting point was in the range of 155 to 157 °C.

Regarding `Cc1cc2nc(Cl)c3ccccc3n2n1`, the melting point lay within 138 to 140 °C.

For the molecule `N#Cc1cccc(NC(=O)c2cccc(N)c2)c1`, the melting point was in the range of 163 to 165 °C.

`O=C(O)CCS(=O)c1ccc2c(c1)OCCCO2` (stereo not given) yielded a melting point of 114 to 116 °C.

With `O=c1[nH]cnc2c1oc1ccccc12`, the melting point fell in the range of 300 to 302 °C.

In the case of `O=Cc1cnc(-c2cccnc2)s1`, the melting point is 139 to 141 °C.

For the molecule `CCCc1cc(C(=O)O)sc1C`, the melting point lay in the range of 94 to 96 °C.

In turn, `O=C(O)C(Cc1ccccc1Br)Cc1ccccc1Br` showed a melting point of 145 to 147 °C.

The molecule `O=C(CCl)NCC1CCCc2ccccc21` (stereo not given) gave a melting point of 114 to 116 °C.

`COc1ccc(S(=O)(=O)N(C)C)cc1NC(=O)C(C)Cl` (stereo not given) registered a melting point of 107 to 109 °C.

`Cc1noc(-c2cccnc2Cl)n1` displayed a melting point of 65 to 67 °C.

The molecule `CCOC(=O)c1[nH]cnc1N` returned a melting point of 129 to 131 °C.

`Cc1cc(C=O)c(C)n1-c1ccc(Cl)c(C(F)(F)F)c1` showed a melting point of 88 to 90 °C.

In the case of `O=c1[nH]c(Nc2ccccc2)cc2ccccc12`, the melting point lay in the range of 191 to 193 °C.

With `O=C(O)C1CCN(C(=O)c2ccc(Br)cc2)CC1`, the melting point lay in the range of 202 to 204 °C.

In turn, `O=C(O)c1c2c(nc3ccccc13)C(=Cc1cccc(Cl)c1Cl)CCC2` showed a melting point of 294 to 296 °C.

`CN(C)c1ccc(C(=N)N)c(F)c1` displayed a melting point of 133 to 135 °C.

Molecule `Cc1sc2ncn(N)c(=O)c2c1C` came in with a melting point of 131 to 133 °C.

The molecule `O=C(O)CCS(=O)(=O)c1ccc2c(c1)OCCO2` returned a melting point of 154 to 156 °C.

With `NNc1nc(Cl)c(Cl)cc1Cl`, the melting point was in the range of 161 to 163 °C.

Take `NC1CCN(c2ccc(Cl)c(F)c2)C1=O` (stereo not given): the melting point fell in the range of 69 to 71 °C.

For `Cc1cc(C=O)nc(N2CCCCC2)n1`, the melting point fell in the range of 49 to 51 °C.

As for `Cc1ncsc1-c1nc(CCl)no1`, the melting point was in the range of 82 to 84 °C.

In turn, `O=C1CC(NC(=O)C(F)(F)F)c2ccccc21` (stereo not given) yielded a melting point of 149 to 151 °C.

On to `NS(=O)(=O)c1ccc(S)nc1`, for which the melting point fell in the range of 242 to 244 °C.

Molecule `CC(=O)NCCc1ccc(S(N)(=O)=O)s1` yielded a melting point of 144 to 146 °C.

Molecule `COC(=O)c1ccc(-c2nc(C3CC3)no2)cc1` showed a melting point of 100 to 102 °C.

For `Cc1cc(S(N)(=O)=O)c(C)s1`, the melting point fell in the range of 139 to 141 °C.

As to `O=C(O)CNc1ncnc2ccccc12`, the melting point lay within 219 to 221 °C.

`COc1cc(C)ccc1Oc1ccc(N)cn1`: the melting point lay in the range of 106 to 108 °C.

Molecule `Cc1cccc(OCCC(=O)O)c1` had a melting point of 99 to 101 °C.

Take `Nc1ccccc1-c1ncc[nH]1`: the melting point lay within 132 to 134 °C.

In the case of `CC1CSc2ccc(Cl)cc2NC1=O` (stereo not given), the melting point fell in the range of 222 to 224 °C.

With `CCOc1cc(C=O)ccc1OCCOc1ccc(F)cc1`, the melting point was 85 to 87 °C.

`O=S(=O)(CCN1CCCC(O)C1)c1ccc(Br)cc1` (stereo not given) gave a melting point of 182 to 184 °C.

Regarding `COc1ccc(CC(N)c2ccc(OC)cc2)cc1` (stereo not given), the melting point lay in the range of 175 to 177 °C.

For `O=C(O)c1ccc(Cl)c(S(=O)(=O)Cl)c1`, the melting point is 142 to 145 °C.

For `CS(=O)(=O)c1ccc(CCN)cc1`, the melting point fell in the range of 76 to 78 °C.

As to `Cc1cccc(NC(=O)CCN)n1`, the melting point is 105 to 106 °C.

In turn, `NC(=NO)c1ccc(Br)cc1` gave a melting point of 153 to 155 °C.

Consider `CNS(=O)(=O)c1ccccc1N`, for which the melting point was in the range of 53 to 55 °C.

On to `CNS(=O)(=O)c1ccc(Cl)c(C(=O)O)c1Cl`, for which the melting point was in the range of 136 to 138 °C.

`CN1C(=O)CCc2cc(Br)ccc21` gave a melting point of 79 to 81 °C.

In the case of `CC1(C)NC(=O)N(CC(=O)O)C1=O`, the melting point lay within 167 to 169 °C.

In turn, `NS(=O)(=O)c1ccc(Cl)c2ccccc12` yielded a melting point of 181 to 183 °C.

Molecule `CCOc1ccc(Nc2ncccc2C(=O)O)cc1` registered a melting point of 189 to 191 °C.

Take `Cc1nc(-c2ccsc2)sc1C(=O)O`: the melting point is 235 to 237 °C.

On to `Nc1ccccc1C(=O)NCCc1ccccc1`, for which the melting point was in the range of 110 to 112 °C.

With `CN(C)C(=O)Cn1ccc(N)n1`, the melting point was 58 to 60 °C.
